From patent US20260138958A1, “SUBSTITUTED N-PHENYLURACILS AND SALTS THEREOF, AND USE THEREOF AS HERBICIDAL ACTIVE SUBSTANCES” (Bayer Aktiengesellschaft, priority 2022, published 2026)

Assays:
Format in all cases: in vivo
[1] = test system: Abutilon theophrasti (ABUTH); assay: Post-emergence herbicidal action, greenhouse pot test
Summary of the method: (§1)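 Post-em greenhouse pots, sandy loam; one-leaf stage (2–3 wk after sowing); WP/EC spray, aq. suspension/emulsion + 0.5% additive, 600 l/ha; optimum conditions ~3 wk; visual % activity vs untreated (100% = dead).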

[2] = test system: Pharbitis purpurea (PHBPU); assay: as above
Summary of the method: as §1

[3] = test system: Echinochloa crus-galli (ECHCG); assay: as above
Summary of the method: as §1

[4] = test system: Alopecurus myosuroides (ALOMY); assay: as above; details: 20 g/ha
Summary of the method: as §1

[5] = test system: Tripleurospermum inodorum (MATIN); assay: as above; details: 20 g/ha
Summary of the method: as §1

[6] = test system: Digitaria sanguinalis (DIGSA); assay: as above
Summary of the method: as §1

[7] = test system: Polygonum convolvulus (POLCO); assay: as above
Summary of the method: as §1

[8] = test system: Amaranthus retroflexus (AMARE); assay: as above
Summary of the method: as §1

Bassia scoparia (KCHSC) = assay: as above
Summary of the method: as §1

Viola tricolor (VIOTR) = assay: as above
Summary of the method: as §1

Setaria viridis (SETVI) = assay: as above
Summary of the method: as §1

Veronica persica (VERPE) = assay: as above
Summary of the method: as §1

Lolium rigidum (LOLRI) = assay: as above
Summary of the method: as §1

Glycine max (GLXMA) = assay: Post-emergence crop plant compatibility, greenhouse pot test; details: crop plant, post-emergence, 1.25 g/ha
Summary of the method: (§2)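 Visual % damage scores were taken roughly 3 weeks after treatment, relative to untreated plants, where 100% means plants died and 0% means no difference. Plants received aqueous sprays (WP or EC, 0.5% additive, 600 l/ha) on green parts at the one-leaf stage, 2–3 weeks after sowing.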

[9] = test system: Triticum aestivum (TRZAS); assay: as above; details: crop plant, post-emergence, 1.25 g/ha
Summary of the method: as §2

CC(OC(=O)COc1ccccc1Oc1cc(-n2c(=O)cc(C(F)(F)F)n(C)c2=O)c(F)cc1Cl)C1CCCC1 (centres unmarked) [I.7-13]
Post-emergence effect at 1.25 g/ha against ABUTH in % ([1]; 1.25 g/ha): 80% | Post-emergence effect at 5 g/ha against ABUTH in % ([1]; 5 g/ha): 100% | Post-emergence effect at 20 g/ha against ABUTH in % ([1]; 20 g/ha): 100% | Post-emergence effect at 1.25 g/ha against PHBPU in % ([2]; 1.25 g/ha): 100% | Post-emergence effect at 5 g/ha against PHBPU in % ([2]; 5 g/ha): 100% | Post-emergence effect at 20 g/ha against PHBPU in % ([2]; 20 g/ha): 100% | Post-emergence effect at 1.25 g/ha against ECHCG in % ([3]; 1.25 g/ha): 80% | Post-emergence effect at 5 g/ha against ECHCG in % ([3]; 5 g/ha): 90% | Post-emergence effect at 20 g/ha against ECHCG in % ([3]; 20 g/ha): 100% | Post-emergence effect at 20 g/ha against ALOMY in % [4]: 80% | Post-emergence effect at 20 g/ha against MATIN in % [5]: 80% | Post-emergence effect at 5 g/ha against DIGSA in % ([6]; 5 g/ha): 100% | Post-emergence effect at 20 g/ha against DIGSA in % ([6]; 20 g/ha): 100% | Post-emergence effect at 5 g/ha against POLCO in % ([7]; 5 g/ha): 100% | Post-emergence effect at 20 g/ha against POLCO in % ([7]; 20 g/ha): 100% | Post-emergence effect at 1.25 g/ha against AMARE in % ([8]; 1.25 g/ha): 100% | Post-emergence effect at 5 g/ha against AMARE in % ([8]; 5 g/ha): 100% | Post-emergence effect at 20 g/ha against AMARE in % ([8]; 20 g/ha): 100% | Post-emergence effect at 5 g/ha against KCHSC in % (Bassia scoparia (KCHSC); 5 g/ha): 100% | Post-emergence effect at 20 g/ha against KCHSC in % (Bassia scoparia (KCHSC); 20 g/ha): 100% | Post-emergence effect at 1.25 g/ha against VIOTR in % (Viola tricolor (VIOTR); 1.25 g/ha): 90% | Post-emergence effect at 5 g/ha against VIOTR in % (Viola tricolor (VIOTR); 5 g/ha): 100% | Post-emergence effect at 20 g/ha against VIOTR in % (Viola tricolor (VIOTR); 20 g/ha): 100% | Post-emergence effect at 1.25 g/ha against SETVI in % (Setaria viridis (SETVI); 1.25 g/ha): 100% | Post-emergence effect at 5 g/ha against SETVI in % (Setaria viridis (SETVI); 5 g/ha): 100% | Post-emergence effect at 20 g/ha against SETVI in % (Setaria viridis (SETVI); 20 g/ha): 100% | Post-emergence effect at 1.25 g/ha against VERPE in % (Veronica persica (VERPE); 1.25 g/ha): 100% | Post-emergence effect at 5 g/ha against VERPE in % (Veronica persica (VERPE); 5 g/ha): 100% | Post-emergence effect at 20 g/ha against VERPE in % (Veronica persica (VERPE); 20 g/ha): 100% | Post-emergence effect at 20 g/ha against LOLRI in % (Lolium rigidum (LOLRI)): 80% | Post-emergence effect at 1.25 g/ha against GLXMA in % (Glycine max (GLXMA)): 20% | Post-emergence effect at 1.25 g/ha against TRZAS in % [9]: 20%
